Results on five compounds are retold here after PMC5940854, “Nitrothiophene carboxamides, a novel narrow spectrum antibacterial series: Mechanism of action and Efficacy” (Scientific Reports, 2018).

The test system of experiment [1] is wild-type E. coli CGSC#7636 (BW25113). In words: MIC, wild-type E. coli. It counts as cell-based. Conditions: for MIC: Escherichia coli, read-out: MIC WT. As for the experimental part: (§1) The inoculum used for all the experiments is derived from a single seed lot that is maintained as glycerol stocks at −80 °C and are sub cultured on LB plate for isolated colonies. Single colony of each strain is grown in M9 medium. All test compound stocks and dilutions are prepared in DMSO. Serial two-fold dilutions of compounds are prepared separately, with the concentrations ranging from 2 mg/mL to 0.015 mg/mL. To 150 µl (3–7 × 10^5 CFU/ml) of bacterial culture in 96 well microtitre plates, 3 μL compound from each of the dilutions is added to respective wells to obtain final concentrations ranging from 40 µg/mL to 0.3 µg/mL of the test compounds. Media control, culture control and appropriate reference drug controls are included. […] Growth is monitored by checking absorbance at 600 nm (A600). […] The samples from MIC and above concentrations are plated for MBC (Minimum Bactericidal Concentration). The samples are diluted 1:10 and plated on LB agar plates. […] The killing kinetics is determined by enumerating survivors at various time points following compound exposure. E. coli cells (~10^7 CFU/ml; A600 of 0.1) are treated with various concentrations (40 µg/mL to 0.3 µg/mL) of compounds in a 96-well microtitre plate. At various time intervals (0 to 8 h), 30 μl volumes of treated cultures are serially diluted and plated on LB agar plates. […] Data is expressed as the log10 CFU for each drug treatment.

For another experiment, the target named is T1, AcrB (Escherichia coli, UniProt P31224).
T1 construct: Full length acrB gene was amplified from E. coli; BW25113; His-tag (C); made in house; host or cells: E. coli C43(DE3), plasmid pET21a
In words: Thermal shift assay with CPM dye. The arrangement: species or system E. coli. The following applies: AcrB vs apo-protein; > 1°C implies binding. As to the method:
AcrB overexpression protocol is adopted from Du. et al.[31]. Full length acrB gene was amplified from E. coli. BW25113 using Forward Primer 5′-[…]-3′ Reverse Primer 5′-[…]-3′ and cloned into the plasmid pET21a. The resultant plasmid that would express AcrB with a C-terminal His-tag is transformed into E. coli strain C43(DE3). The cells are induced on reaching A600 = 0.6 and transferred to 18 °C. The culture is harvested by centrifugation and re-suspended in Buffer A (100 mM Sodium Phosphate, 100 mM NaCl, 10 mM Imidazole, pH = 7.4, 100 µg/ml protease inhibitor cocktail from Roche and 5 U/ml DNase I and 5 mg/ml lysozyme). The cells are lysed at 15000 psi using Emulsiflex and centrifuged at 8000 g for removing cell debris. The membrane is isolated by centrifuging the resultant supernatant at 125000 g (see Coomassie stained SDS-PAGE of the purified protein Figure S9). Membrane solubilisation is done using Buffer A and 1.5% DDM (n-Dodecyl-β-D-Maltoside). Ni-NTA chromatography is used to purify the His-tagged protein and eluted in Buffer A with 300 mM Imidazole and 1.5% DDM.
The assay is performed according to protocols established elsewhere. CPM (N- [4-(7-diethylamino-4-methyl-3-coumarinyl) phenyl] maleimide) is a thiol specific fluorochrome (Excitation 387 nm, Emission 463 nm) and is non-fluorescent in an unbound state. The proteins, on thermal unfolding exposes cysteines allowing the CPM to bind and fluoresce. […]. The thermal denaturation is performed in a fluorimeter that is heated from 25 to 90 °C at a ramp rate of 1 °C/min. The Tm is calculated by analysing the melting profiles using Boltzmann Sigmoid function (GraphPad Prism) and ∆Tm is calculated by measuring the difference between the Tm of inhibitor bound protein and the apo-protein.

In another experiment the test system is E. coli ∆nfsA + ∆nfsB. As to the kind of experiment: microbe, parasite or virus in culture. It counts as cell-based. The following applies: for MIC: Escherichia coli, read-out: MIC ∆nfsA + ∆nfsB; for antibacterial activity in double knockout (in words): ΔnfsA and ΔnfsB double knockout strain. As for the experimental part: (§2) To assess the biological relevance of the interacting protein and establish the link between nitroreductases to the antibacterial activity of NTC compounds, single (ΔnfsA or ΔnfsB) and double knockouts (ΔnfsA & ΔnfsB) of nitroreductases were generated by phage transduction using strains from the Keio collection.
as §1

A further experiment relates to E. coli ∆nfsA. As to the kind of experiment: microbe, parasite or virus in culture. It counts as cell-based. Conditions: Escherichia coli, read-out: MIC ∆nfsA. As for the experimental part: as §2, §1
The test system of experiment [2] is clinical isolate of E. coli (Strain No. 371). In words: Neutropenic thigh infection, E. coli clinical isolate. It counts as in vivo, BALB/c mice. Conditions: for Log10CFU Mean Diff. vs. Untreated Controls: Study TI-2014-023, Clinical Isolate N. 371, 100mg/kg per oral; for efficacy in thigh infection model (in words): clinical isolate of E. coli.
The test system of another experiment is E. coli BW24113. As to the kind of experiment: In vitro time kill analysis. The following applies: for time to 99.9% reduction: at 2–4X MIC; for time to total kill (below the limit of quantitation, LOQ): at 8X MIC. It counts as cell-based. As for the experimental part: as §1

≈ marks a conversion by molar mass, not a printed value. Where “and” joins values, the source holds several entries; their conditions need not be identical. Identical values can stand only once. Like-named read-outs stand apart in the source and are kept apart here.

T1 sequence (P31224 whole entry): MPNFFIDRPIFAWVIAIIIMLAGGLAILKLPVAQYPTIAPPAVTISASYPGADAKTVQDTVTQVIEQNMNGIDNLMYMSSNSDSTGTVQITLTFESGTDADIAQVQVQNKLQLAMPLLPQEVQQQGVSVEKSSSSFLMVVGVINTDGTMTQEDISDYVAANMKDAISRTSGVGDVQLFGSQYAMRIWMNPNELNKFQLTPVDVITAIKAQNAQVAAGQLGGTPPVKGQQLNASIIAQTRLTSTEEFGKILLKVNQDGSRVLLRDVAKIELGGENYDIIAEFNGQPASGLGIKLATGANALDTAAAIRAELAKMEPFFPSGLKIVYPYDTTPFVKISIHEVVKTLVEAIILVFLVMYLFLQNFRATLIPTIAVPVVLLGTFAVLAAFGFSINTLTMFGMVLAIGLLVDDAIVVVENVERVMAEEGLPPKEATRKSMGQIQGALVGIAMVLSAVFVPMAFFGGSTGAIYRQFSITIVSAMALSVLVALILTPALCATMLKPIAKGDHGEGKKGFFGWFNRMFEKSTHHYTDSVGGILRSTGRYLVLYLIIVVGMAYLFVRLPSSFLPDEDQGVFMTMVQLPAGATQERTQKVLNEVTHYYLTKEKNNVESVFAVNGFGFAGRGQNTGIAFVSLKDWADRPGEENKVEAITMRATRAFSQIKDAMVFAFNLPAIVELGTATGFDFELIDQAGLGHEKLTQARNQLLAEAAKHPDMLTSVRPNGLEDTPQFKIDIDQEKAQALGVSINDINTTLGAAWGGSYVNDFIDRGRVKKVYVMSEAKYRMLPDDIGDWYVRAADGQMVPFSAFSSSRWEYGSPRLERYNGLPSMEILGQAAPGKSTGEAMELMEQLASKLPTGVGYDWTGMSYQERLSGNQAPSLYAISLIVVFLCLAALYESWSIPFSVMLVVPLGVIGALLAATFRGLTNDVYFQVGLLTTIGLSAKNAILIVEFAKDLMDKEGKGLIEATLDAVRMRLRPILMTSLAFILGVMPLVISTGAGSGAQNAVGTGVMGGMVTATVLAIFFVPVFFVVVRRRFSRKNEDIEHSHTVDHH

For the compound `Cc1sc(NC(=O)c2ccc([N+](=O)[O-])s2)nc1-c1ccccc1` [compound 7, N-(5-Methyl-4-phenylthiazol-2-yl)-5-nitrothiophene-2-carboxamide], the “MIC WT” value in experiment [1] (E. coli WT BW25113) was >40 µg/mL. Moreover, the MIC was > 40 µg/mL in experiment [1] (BW25113, E. coli WT BW25113); > 40 µg/mL in the experiment on E. coli ∆nfsA + ∆nfsB; > 40 µg/mL in the experiment with E. coli ∆nfsA. The “∆Tm” value on AcrB stood at 4.13 °C.
Consider `O=C(Nc1nc(-c2ccc(F)cc2F)cs1)c1ccc([N+](=O)[O-])s1` [compound 12, N-(4-(2,4-difluorophenyl)thiazol-2-yl)-5-nitrothiophene-2-carboxamide], for which the MIC was 0.6 µg/mL (≈ 1.63 µM) in experiment [1] (BW25113, E. coli WT BW25113); 0.6 µg/mL (≈ 1.63 µM) in experiment [1] (BW25113, Table S11); > 40 µg/mL with E. coli ∆nfsA + ∆nfsB; 0.6 µg/mL (≈ 1.63 µM) in the experiment on E. coli ∆nfsA. The “∆Tm” value at AcrB stood at 0.68 °C. For the same compound, the “antibacterial activity in double knockout (in words)” value (from here on “antibacterial activity”) in the experiment with E. coli ∆nfsA + ∆nfsB is “completely inactive”. The “Log10CFU Mean Diff. vs. Untreated Controls” value in experiment [2] is 1.907 Log10CFU. The “efficacy in thigh infection model (in words)” value in experiment [2] was “significantly bactericidal”.
Take `O=C(Nc1nc(-c2ccc(F)cc2)cs1)c1ccc([N+](=O)[O-])s1` [compound 15, N-(4-(4-Fluorophenyl)thiazol-2-yl)-5-nitrothiophene-2-carboxamide]: in experiment [1] (BW25113, E. coli WT BW25113), the MIC is 1.25 µg/mL (≈ 3.58 µM). Also, the MIC in experiment [1] (BW25113, Table S11) was determined as 1.25 µg/mL (≈ 3.58 µM). In addition, on AcrB, the “∆Tm” value was 1.75 °C and < 2 °C. In the experiment on E. coli BW24113, the “time to 99.9% reduction” value was 6 to 8 h and the “time to total kill (below the limit of quantitation, LOQ)” value was determined as 8 h. For the same compound, in the experiment with E. coli ∆nfsA + ∆nfsB, the MIC is > 40 µg/mL and the “antibacterial activity” value is “completely inactive”. In addition, in the experiment with E. coli ∆nfsA, the MIC stood at 0.6 µg/mL (≈ 1.72 µM). Also, in experiment [2], the “Log10CFU Mean Diff. vs. Untreated Controls” value is listed as 1.553 Log10CFU and the “efficacy in thigh infection model (in words)” value was “significantly bactericidal”.
`COc1cc(-c2csc(NC(=O)c3ccc([N+](=O)[O-])s3)n2)ccc1Cl` [compound 20, N-(4-(4-chloro-3-methoxyphenyl)thiazol-2-yl)-5-nitrothiophene-2-carboxamide]: the MIC was 1.25 µg/mL (≈ 3.16 µM) in experiment [1] (BW25113, Table S11); > 40 µg/mL with E. coli ∆nfsA + ∆nfsB; 0.6 µg/mL (≈ 1.52 µM) in the experiment with E. coli ∆nfsA. Moreover, the “∆Tm” value at AcrB was 1.86 °C and < 2 °C. Besides, in the experiment with E. coli BW24113, the “time to 99.9% reduction” value is 6 to 8 h. In the experiment on E. coli BW24113, the “time to total kill (below the limit of quantitation, LOQ)” value is 8 h. Also, the “antibacterial activity” value with E. coli ∆nfsA + ∆nfsB is “completely inactive”.
Consider `O=C1CN(/N=C/c2ccc([N+](=O)[O-])o2)C(=O)N1` [nitrofurantoin, reference compound], for which the MIC in experiment [1] (BW25113, E. coli WT BW25113) was determined as 2.5 µg/mL (≈ 10.5 µM); with E. coli ∆nfsA + ∆nfsB, 20 µg/mL; in the experiment on E. coli ∆nfsA, 5 µg/mL (≈ 21 µM). For the same compound, the “fold elevation of MIC in the double knockout” value in the experiment with E. coli ∆nfsA + ∆nfsB (∆nfsA & ∆nfsB vs WT) is on record as “about 8 fold”.
